Source: PMC6629693 (Scientific Reports, 2019)
“Also recorded” adds a separate entry of the source. Like-named read-outs stand apart in the source and are kept apart here.

Columns and labels:
D206A HtxB [1] = target: T1, D206A HtxB (Stutzerimonas stutzeri, UniProt O69061, D238A); conditions: 10 mM phosphite, pH range 4-9
[2] = Fig. 1; no reference given; cited from earlier work
D206A HtxB [3] = target: T1, D206A HtxB
WT HtxB [4] = target: T2, WT HtxB (Stutzerimonas stutzeri, UniProt O69061); experiment: biochemical
T2 sequence (O69061 34-298): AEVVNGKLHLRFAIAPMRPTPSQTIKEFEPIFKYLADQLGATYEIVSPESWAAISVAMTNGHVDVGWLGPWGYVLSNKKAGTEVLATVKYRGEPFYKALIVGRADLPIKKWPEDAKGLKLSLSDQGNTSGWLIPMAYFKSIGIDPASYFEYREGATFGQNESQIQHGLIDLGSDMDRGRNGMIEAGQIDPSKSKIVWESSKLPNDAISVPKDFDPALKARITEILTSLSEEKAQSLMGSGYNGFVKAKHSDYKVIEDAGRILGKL

D206N HtxB = D206N HtxB (Stutzerimonas stutzeri, UniProt O69061, D238N); experiment: biochemical; type: binding, Pseudomonas stutzeri
Sequence of D206N HtxB (O69061 34-298 D238N limits assumed): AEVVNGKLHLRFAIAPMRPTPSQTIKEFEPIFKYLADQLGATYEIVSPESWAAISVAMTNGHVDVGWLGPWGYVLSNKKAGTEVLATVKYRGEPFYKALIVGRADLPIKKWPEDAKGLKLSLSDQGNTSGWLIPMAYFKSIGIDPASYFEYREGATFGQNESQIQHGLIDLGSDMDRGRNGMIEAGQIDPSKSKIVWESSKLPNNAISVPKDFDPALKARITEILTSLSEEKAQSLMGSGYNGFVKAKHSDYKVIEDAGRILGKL

D206A HtxB [5] = target: T1, D206A HtxB; experiment: biochemical
WT HtxB [6] = target: T2, WT HtxB; conditions: 10 mM phosphite, 1 mM HtxB
HtxB = conditions: cited from earlier work
WT HtxB [7] = target: T2, WT HtxB; conditions: pH 5

T1 sequence (O69061 34-298 D238A): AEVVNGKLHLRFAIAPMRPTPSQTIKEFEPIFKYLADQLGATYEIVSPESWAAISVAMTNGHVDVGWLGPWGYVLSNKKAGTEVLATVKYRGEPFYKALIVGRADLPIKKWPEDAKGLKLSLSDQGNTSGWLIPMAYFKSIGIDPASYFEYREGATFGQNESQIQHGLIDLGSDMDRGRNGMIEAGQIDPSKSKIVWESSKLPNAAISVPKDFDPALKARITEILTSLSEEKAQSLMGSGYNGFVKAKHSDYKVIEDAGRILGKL

| Compound | linebroadening of the 31P peak (in words) (D206A HtxB [1]) | pKa2 [2] | binding (in words) (D206A HtxB [3]; pH 7.4) | Kd (D206A HtxB [3]; read-out: Calculated Kd, pH 5) [mM] | Kd (WT HtxB [4]) [mM] | Kd (D206N HtxB) [mM] | Kd (D206N HtxB; read-out: Calculated Kd, pH 5) [mM] | Kd (D206A HtxB [5]) [mM] | pH of maximal line broadening (WT HtxB [6]; pH 9-4) | linebroadening of the 31P peak (in words) (WT HtxB [6]; reducing pH from 9 to 4) | Kd (HtxB; pH 7.4) [mM] | fold lower affinity than hypophosphite at the same pH (WT HtxB [7]) | ligand concentration at which protein was not saturated in full titration (D206N HtxB; 50 mM HEPES pH 7.4) [mM] | binding (in words) (D206N HtxB; 50 mM HEPES pH 7.4, 100 mM phosphate) | binding (in words) (HtxB) |
| --- | --- | --- | --- | --- | --- | --- | --- | --- | --- | --- | --- | --- | --- | --- | --- |
| O=[PH](O)O [phosphite] | did not show significant linebroadening | 1.3 | No evidence of D206A HtxB binding | > 100 | 1.74 | > 100 | > 100 | > 100 | 6 | significant linebroadening | > 10 | ca. 1000 × | – | – | – |
| phosphate | – | – | – | – | – | – | – | – | – | – | – | – | > 100 | weakly; also recorded: incredibly weak | does not bind |
